We go through 1 compound from paper PMC4917448 (Journal of biomolecular screening, 2016).

For test [1], the system named is HDAC I/II. Nature of the test: HDAC-Glo I/II assay in HCT116 cells. The format is cell-based, human.
Test [2] deals with HDAC I/II. Nature of the test: HDAC-Glo I/II assay in human neural stem cells. It is filed as cell-based. The following applies: cherry-pick confirmation.
Test [3] concerns human neural stem cells. As to the kind of experiment: CellTiter-Glo cell viability assay in hNSC. It is filed as cell-based. The settings on record: cherry-pick confirmation, 1 hour. (ATP-based viability assays read luminescence as a measure of living cells.)
Test [4] has as its system HCT116 cells. As to the kind of experiment: CellTiter-Glo cell viability assay in HCT116. The following applies: cherry-pick confirmation, 1 hour. The format is cell-based, human.
In test [5] the target is HDAC1 (Homo sapiens, UniProt Q13547). Nature of the test: Fluorogenic isoform-specific HDAC assay, HDAC1. It is filed as biochemical.
Sequence of HDAC1 (Q13547 whole entry, canonical isoform): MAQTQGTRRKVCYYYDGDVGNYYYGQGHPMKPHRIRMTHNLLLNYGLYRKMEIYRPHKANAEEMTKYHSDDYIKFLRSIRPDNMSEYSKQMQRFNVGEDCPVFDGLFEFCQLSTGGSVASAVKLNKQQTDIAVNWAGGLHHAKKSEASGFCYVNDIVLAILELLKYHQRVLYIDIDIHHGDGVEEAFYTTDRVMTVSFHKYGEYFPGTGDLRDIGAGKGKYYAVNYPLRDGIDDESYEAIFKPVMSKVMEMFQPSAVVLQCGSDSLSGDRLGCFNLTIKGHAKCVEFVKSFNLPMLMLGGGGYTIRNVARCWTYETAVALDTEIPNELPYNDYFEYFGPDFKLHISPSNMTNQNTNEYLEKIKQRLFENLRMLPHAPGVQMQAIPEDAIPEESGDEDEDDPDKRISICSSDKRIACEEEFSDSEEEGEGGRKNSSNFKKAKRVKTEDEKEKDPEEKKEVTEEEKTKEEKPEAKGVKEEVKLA
In test [6] the target is HDAC2 (Homo sapiens, UniProt Q92769). Nature of the test: Fluorogenic isoform-specific HDAC assay, HDAC2. It is filed as biochemical.
Sequence of HDAC2 (Q92769 whole entry, canonical isoform): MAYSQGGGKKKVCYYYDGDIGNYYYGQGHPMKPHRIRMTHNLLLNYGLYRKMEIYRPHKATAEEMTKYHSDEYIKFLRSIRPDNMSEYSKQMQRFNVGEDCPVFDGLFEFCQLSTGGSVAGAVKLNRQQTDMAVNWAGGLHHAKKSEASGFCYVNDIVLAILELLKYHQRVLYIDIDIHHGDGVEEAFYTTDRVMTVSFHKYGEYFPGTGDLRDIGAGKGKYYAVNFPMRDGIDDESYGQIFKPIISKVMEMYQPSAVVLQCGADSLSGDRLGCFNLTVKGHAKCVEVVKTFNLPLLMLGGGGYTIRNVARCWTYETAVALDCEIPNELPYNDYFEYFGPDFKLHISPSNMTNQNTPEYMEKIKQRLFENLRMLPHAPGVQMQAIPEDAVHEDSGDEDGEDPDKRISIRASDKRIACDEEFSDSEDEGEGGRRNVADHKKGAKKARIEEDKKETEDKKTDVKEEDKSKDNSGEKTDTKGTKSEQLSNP
Test [7] addresses HDAC3 (Homo sapiens, UniProt O15379). As to the kind of experiment: Fluorogenic isoform-specific HDAC assay, HDAC3. The format is biochemical.
For test [8], the target named is HDAC4 (Homo sapiens, UniProt P56524). As to the kind of experiment: Fluorogenic isoform-specific HDAC assay, HDAC4. The format is biochemical.
Sequence of HDAC4 (P56524 whole entry, canonical isoform): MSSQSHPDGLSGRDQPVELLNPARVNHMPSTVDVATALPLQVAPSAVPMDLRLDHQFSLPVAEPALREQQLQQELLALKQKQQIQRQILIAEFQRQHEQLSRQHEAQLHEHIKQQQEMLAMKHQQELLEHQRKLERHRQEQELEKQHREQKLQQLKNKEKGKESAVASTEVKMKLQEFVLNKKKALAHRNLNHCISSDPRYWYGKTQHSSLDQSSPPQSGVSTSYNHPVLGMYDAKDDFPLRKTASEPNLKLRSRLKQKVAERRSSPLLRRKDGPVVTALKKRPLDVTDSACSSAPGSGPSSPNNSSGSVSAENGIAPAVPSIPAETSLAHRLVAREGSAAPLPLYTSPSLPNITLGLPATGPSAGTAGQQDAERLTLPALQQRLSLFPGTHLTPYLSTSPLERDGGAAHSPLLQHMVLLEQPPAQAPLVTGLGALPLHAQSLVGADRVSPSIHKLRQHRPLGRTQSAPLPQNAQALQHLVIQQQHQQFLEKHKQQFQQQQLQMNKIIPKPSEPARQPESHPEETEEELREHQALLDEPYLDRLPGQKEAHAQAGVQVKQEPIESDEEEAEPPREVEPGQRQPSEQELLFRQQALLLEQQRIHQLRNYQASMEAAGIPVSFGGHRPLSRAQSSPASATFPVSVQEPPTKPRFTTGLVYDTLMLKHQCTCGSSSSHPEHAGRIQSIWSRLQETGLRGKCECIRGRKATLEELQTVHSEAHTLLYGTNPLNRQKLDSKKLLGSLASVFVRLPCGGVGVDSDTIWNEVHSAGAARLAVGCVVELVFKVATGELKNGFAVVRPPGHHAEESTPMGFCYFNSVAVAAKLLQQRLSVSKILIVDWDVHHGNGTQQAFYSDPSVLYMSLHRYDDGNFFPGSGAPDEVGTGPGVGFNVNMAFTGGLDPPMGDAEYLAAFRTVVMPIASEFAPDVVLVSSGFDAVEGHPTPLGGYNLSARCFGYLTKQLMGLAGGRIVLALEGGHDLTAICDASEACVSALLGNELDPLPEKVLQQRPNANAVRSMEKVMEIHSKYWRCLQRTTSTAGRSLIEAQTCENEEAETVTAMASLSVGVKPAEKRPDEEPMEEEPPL
Test [9] deals with HDAC5 (Homo sapiens, UniProt Q9UQL6). Nature of the test: Fluorogenic isoform-specific HDAC assay, HDAC5. The format is biochemical.
Sequence of HDAC5 (Q9UQL6 whole entry, canonical isoform): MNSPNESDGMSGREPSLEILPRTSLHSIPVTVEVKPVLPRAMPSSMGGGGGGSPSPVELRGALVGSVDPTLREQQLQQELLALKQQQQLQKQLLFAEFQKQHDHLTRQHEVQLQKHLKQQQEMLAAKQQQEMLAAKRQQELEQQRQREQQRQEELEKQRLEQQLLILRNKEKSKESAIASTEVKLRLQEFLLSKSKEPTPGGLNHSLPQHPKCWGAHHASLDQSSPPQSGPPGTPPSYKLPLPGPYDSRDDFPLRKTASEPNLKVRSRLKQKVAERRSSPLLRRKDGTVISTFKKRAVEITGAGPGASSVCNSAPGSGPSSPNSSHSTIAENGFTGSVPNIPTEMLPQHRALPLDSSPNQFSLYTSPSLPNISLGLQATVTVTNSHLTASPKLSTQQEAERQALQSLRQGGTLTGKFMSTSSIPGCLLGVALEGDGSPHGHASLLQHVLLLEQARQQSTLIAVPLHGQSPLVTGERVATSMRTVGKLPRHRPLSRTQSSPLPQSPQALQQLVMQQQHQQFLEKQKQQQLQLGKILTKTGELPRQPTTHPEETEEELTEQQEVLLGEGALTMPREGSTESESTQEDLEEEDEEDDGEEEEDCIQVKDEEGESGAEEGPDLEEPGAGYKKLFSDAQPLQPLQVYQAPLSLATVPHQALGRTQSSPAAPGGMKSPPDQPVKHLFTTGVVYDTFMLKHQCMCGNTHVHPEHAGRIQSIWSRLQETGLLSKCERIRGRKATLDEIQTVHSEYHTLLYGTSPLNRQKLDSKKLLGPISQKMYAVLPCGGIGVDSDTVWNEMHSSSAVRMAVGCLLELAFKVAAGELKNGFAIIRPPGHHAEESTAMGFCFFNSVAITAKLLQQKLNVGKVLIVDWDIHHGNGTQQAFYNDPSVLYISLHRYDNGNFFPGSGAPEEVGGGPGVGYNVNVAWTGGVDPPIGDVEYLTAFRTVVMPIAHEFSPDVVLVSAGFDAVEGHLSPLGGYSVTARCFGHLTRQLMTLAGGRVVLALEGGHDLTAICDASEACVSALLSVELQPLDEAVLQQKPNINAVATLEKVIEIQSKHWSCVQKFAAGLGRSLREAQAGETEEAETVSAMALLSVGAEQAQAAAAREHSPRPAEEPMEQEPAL
Test [10] addresses T1, HDAC6 (Homo sapiens, UniProt Q9UBN7).
T1 sequence (Q9UBN7 1-1215): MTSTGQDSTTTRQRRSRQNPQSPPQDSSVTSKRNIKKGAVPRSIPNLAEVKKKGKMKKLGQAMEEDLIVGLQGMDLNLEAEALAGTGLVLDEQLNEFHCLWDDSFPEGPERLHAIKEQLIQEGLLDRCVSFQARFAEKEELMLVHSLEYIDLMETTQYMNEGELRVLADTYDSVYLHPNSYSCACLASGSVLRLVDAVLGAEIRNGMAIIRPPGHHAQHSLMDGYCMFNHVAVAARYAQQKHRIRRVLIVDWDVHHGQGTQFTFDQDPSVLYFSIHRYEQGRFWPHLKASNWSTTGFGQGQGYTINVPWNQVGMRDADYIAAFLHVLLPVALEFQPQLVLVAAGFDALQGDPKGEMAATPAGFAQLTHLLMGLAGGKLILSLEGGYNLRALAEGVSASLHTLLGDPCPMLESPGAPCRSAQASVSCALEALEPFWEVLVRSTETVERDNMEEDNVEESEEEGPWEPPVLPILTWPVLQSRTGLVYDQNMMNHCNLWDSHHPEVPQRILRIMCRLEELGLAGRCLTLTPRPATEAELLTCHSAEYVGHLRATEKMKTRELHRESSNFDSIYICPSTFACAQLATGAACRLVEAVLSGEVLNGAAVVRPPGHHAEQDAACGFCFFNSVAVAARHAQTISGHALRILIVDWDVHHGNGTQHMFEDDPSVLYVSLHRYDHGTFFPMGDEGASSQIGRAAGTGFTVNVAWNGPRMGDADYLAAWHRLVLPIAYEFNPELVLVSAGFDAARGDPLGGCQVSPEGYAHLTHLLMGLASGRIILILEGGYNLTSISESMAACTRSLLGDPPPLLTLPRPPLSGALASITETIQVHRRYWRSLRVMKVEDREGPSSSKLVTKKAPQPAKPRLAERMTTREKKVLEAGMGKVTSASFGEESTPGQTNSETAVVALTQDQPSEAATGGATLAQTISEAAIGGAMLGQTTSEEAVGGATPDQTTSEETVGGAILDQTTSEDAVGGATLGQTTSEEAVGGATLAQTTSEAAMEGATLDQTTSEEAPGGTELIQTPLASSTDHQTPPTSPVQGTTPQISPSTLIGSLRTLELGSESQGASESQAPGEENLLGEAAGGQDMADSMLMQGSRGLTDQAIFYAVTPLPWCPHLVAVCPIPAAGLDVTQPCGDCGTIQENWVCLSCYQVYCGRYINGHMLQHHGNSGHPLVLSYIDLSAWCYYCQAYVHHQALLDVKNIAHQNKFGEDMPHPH
Nature of the test: Fluorogenic isoform-specific HDAC assay, HDAC6. The format is biochemical.

Test [11] concerns the target T2, HDAC8 (Homo sapiens, UniProt Q9BY41).
T2 sequence (Q9BY41 1-377): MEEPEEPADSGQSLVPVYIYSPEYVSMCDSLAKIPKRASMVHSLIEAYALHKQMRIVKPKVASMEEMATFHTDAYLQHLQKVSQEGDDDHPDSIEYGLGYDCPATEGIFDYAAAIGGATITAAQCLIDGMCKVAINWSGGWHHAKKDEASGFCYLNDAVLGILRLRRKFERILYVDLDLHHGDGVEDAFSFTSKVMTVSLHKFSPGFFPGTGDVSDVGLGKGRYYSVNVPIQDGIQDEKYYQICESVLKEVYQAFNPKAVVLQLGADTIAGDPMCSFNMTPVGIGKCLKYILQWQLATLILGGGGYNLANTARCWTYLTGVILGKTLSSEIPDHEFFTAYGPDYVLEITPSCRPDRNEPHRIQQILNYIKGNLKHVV
Nature of the test: Fluorogenic isoform-specific HDAC assay, HDAC8. The format is biochemical.

Test [12] concerns the target HDAC9 (Homo sapiens, UniProt Q9UKV0). As to the kind of experiment: Fluorogenic isoform-specific HDAC assay, HDAC9. It is filed as biochemical.
Test [13] relates to class I and II HDAC enzymes. Nature of the test: Panel of fluorogenic assays against ten class I and II HDAC isoforms. It is filed as biochemical, human. The following applies: red-shifted versions of fluorogenic assays, Figure 4A, 4B.

The structures appear in SMILES notation.

Sequence of HDAC3 (O15379 whole entry, canonical isoform): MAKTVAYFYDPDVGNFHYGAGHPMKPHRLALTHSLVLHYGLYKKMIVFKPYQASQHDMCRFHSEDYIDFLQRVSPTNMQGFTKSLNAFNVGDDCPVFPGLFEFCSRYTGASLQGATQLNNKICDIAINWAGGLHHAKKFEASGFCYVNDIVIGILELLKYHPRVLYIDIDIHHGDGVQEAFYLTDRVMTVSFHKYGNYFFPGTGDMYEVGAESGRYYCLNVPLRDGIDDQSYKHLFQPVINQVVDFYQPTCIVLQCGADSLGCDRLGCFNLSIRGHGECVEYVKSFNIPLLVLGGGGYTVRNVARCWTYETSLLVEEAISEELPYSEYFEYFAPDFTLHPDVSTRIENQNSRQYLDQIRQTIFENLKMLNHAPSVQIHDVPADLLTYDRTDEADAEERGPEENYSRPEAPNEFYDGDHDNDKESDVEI
Sequence of HDAC3 (Q9Y618 395-489 partner limits assumed): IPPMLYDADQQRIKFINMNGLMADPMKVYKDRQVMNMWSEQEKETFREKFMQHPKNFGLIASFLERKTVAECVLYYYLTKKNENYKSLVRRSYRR
Sequence of HDAC9 (Q9UKV0 whole entry, canonical isoform): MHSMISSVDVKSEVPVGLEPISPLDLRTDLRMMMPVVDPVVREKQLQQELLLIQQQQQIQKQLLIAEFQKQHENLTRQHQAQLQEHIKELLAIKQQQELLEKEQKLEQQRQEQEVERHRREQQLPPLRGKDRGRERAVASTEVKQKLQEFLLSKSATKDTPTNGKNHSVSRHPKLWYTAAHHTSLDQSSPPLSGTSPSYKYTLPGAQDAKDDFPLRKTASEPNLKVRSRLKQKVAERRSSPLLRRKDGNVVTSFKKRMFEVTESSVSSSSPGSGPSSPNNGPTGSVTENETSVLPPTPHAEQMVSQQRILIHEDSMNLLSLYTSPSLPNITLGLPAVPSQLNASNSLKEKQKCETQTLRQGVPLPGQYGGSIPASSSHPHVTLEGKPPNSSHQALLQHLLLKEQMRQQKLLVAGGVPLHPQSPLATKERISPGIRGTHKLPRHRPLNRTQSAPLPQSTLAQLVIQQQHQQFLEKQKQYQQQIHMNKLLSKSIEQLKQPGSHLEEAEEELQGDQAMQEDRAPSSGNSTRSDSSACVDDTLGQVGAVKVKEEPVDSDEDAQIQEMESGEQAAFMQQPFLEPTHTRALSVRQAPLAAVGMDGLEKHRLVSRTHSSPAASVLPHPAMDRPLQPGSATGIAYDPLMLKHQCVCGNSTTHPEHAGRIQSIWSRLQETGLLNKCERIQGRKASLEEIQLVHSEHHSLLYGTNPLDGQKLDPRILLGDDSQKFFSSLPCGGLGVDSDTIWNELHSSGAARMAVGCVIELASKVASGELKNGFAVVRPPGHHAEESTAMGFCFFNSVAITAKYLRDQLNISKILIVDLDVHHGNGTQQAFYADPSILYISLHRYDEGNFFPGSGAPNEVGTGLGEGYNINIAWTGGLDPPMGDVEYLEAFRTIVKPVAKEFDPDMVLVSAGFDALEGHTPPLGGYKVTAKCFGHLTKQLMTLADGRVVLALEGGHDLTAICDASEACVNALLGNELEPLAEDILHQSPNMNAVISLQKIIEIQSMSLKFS

Regarding `N=C(N)c1ccc2cc(OC(=O)c3ccc(N=C(N)N)cc3)ccc2c1` [Nafamostat], the “HDAC-Glo: Efficacy, HCT116” value in [1] (cherry-pick confirmation, maximal response) was determined as 116 ± 3%. Further, in test [1] (powder confirmation, maximal response), the “Efficacy, HDAC-Glo I/II HCT116 assay” value was found to be 99 ± 0%. Further, the IC50 is 1110 ± 250 nM in [1] (read-out: HDAC-Glo: IC50, HCT116, cherry-pick confirmation, 11 concentrations, 1 hour); 120 ± 30 nM in test [1] (read-out: IC50, HDAC-Glo I/II HCT116 assay, powder confirmation); 360 ± 140 nM in test [2] (read-out: HDAC-Glo: IC50, hNSC, 11 concentrations, 1 hour); 4670 nM in [5]; 4690 nM in test [6]; 4040 nM in test [7]. In addition, the IC50 was 1490 nM in [8]; 1330 nM in test [9]; 4390 nM in test [10]; 1520 nM in [11]; 1550 nM in test [12]. For the same compound, the “HDAC-Glo: Efficacy, hNSC” value in test [2] (maximal response) was found to be 108 ± 1%. For the same compound, in test [2] (hNSCs, Figure 2), the “inhibition of HDAC-Glo I/II luminescence signals” value is “completely inhibited”. Besides, in test [3], the “Viability: IC50, hNSC” value was “Inactive”. In addition, the “Viability: IC50, HCT116” value in test [4] is “Inactive”. Further, in [13], the isoform selectivity result was “more selective in inhibiting HDAC4, HDAC5, and HDAC8 than other HDAC isoforms”.
